In ChEMBL document CHEMBL1201862, “PubChem BioAssay data set” (2004):
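Interpolation was linear, between the two tested concentrations surrounding the appropriate level; five concentrations were tested over 48 hours in 96-well plates. GI50 marks 50% less growth.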 Activity calls are given as the source filed them. Rule as the data show it: active = GI50 up to about 1.1 µM and inactive = higher.

Key:
Test in all cases: DTP human tumour cell line panel, 48 h
HOP-62 = system: HOP-62
UO-31 = system: UO-31
UACC-257 = system: UACC-257
SF-295 = system: SF-295
Malme-3M = system: Malme-3M
TK-10 = system: TK-10
EKVX = system: EKVX
OVCAR-4 = system: OVCAR-4
NCI-H226 = system: NCI-H226
SK-MEL-2 = system: SK-MEL-2
SK-MEL-5 = system: SK-MEL-5
OVCAR-5 = system: OVCAR-5
HCT-116 = system: HCT-116
A549 = system: A549
IGROV-1 = system: IGROV-1

Measured: GI50

O=c1/c(=C/c2ccc3c(c2)OCO3)sc2nnc(Cc3ccccc3)n12
inactive: HOP-62 > 100 µM | UO-31 > 100 µM | UACC-257 13.1 µM | SF-295 > 100 µM | Malme-3M > 100 µM | TK-10 > 100 µM | EKVX > 100 µM | OVCAR-4 > 100 µM | NCI-H226 > 100 µM | SK-MEL-2 > 100 µM | SK-MEL-5 > 100 µM | OVCAR-5 > 100 µM | HCT-116 > 100 µM | A549 > 100 µM | IGROV-1 > 100 µM

COC(=O)[C@H]1CC(=O)C=C2CCCC21 (stereo not given in full)
inactive: HOP-62 > 100 µM | UO-31 > 100 µM | UACC-257 > 100 µM | SF-295 > 100 µM | Malme-3M > 100 µM | TK-10 > 100 µM | EKVX > 100 µM | OVCAR-4 > 100 µM | SK-MEL-2 > 100 µM | SK-MEL-5 > 100 µM | HCT-116 > 100 µM | A549 > 100 µM | IGROV-1 > 100 µM

C=CCC1(C)CCCCC1(O)C[S+]([O-])c1ccccc1 (stereo not given)
inactive: HOP-62 > 100 µM | UO-31 > 100 µM | UACC-257 > 100 µM | SF-295 > 100 µM | Malme-3M > 100 µM | TK-10 > 100 µM | EKVX > 100 µM | OVCAR-4 > 100 µM | NCI-H226 20.9 µM | SK-MEL-5 > 100 µM | OVCAR-5 > 100 µM | HCT-116 > 100 µM | A549 > 100 µM | IGROV-1 > 100 µM

CCOc1ccc(N2C(=O)C3c4[nH]c5ccccc5c4C4CCC(C(C)(C)C)CC4C3C2=O)cc1 (stereo not given)
inactive: HOP-62 > 100 µM | UO-31 69.2 µM | UACC-257 > 100 µM | SF-295 > 100 µM | Malme-3M > 100 µM | EKVX > 100 µM | OVCAR-4 > 100 µM | NCI-H226 56.5 µM | SK-MEL-5 > 100 µM | HCT-116 49.2 µM | A549 62.4 µM | IGROV-1 > 100 µM

C1=NN(Cc2ccccc2)C(N(Cc2ccccc2)Cc2ccccc2)N1 (stereo not given)
inactive: HOP-62 18.2 µM | UO-31 14.2 µM | UACC-257 16.7 µM | SF-295 14.5 µM | Malme-3M 12.2 µM | TK-10 29.3 µM | EKVX 20.3 µM | OVCAR-4 15.8 µM | NCI-H226 18.5 µM | SK-MEL-2 16.4 µM | SK-MEL-5 14.2 µM | OVCAR-5 13 µM | HCT-116 9.31 µM | A549 16.3 µM | IGROV-1 14.5 µM

O=C(N/N=C1/C(=O)N(c2ccc(Cl)cc2Cl)C(=O)C(=O)C1c1nc2ccccc2o1)c1ccccc1O (stereo not given)
inactive: HOP-62 28.7 µM | Malme-3M 27.3 µM | TK-10 38.9 µM | EKVX 45.7 µM | NCI-H226 > 100 µM | SK-MEL-2 41.3 µM | SK-MEL-5 19 µM | OVCAR-5 > 100 µM | HCT-116 37.2 µM | A549 33 µM | IGROV-1 39.9 µM

CCCCCCCCCCCCC(SCCNC(=O)CCNC(=O)C(O)C(C)(C)COP(=O)(O)OP(=O)(O)OCC1OC(n2cnc3c(N)ncnc32)C(O)C1OP(=O)(O)O)C(=O)NCC(N)=O (stereo not given)
inactive: HOP-62 > 100 µM | UO-31 64.9 µM | UACC-257 > 100 µM | SF-295 > 100 µM | Malme-3M > 100 µM | TK-10 > 100 µM | EKVX > 100 µM | OVCAR-4 > 100 µM | NCI-H226 79.6 µM | SK-MEL-2 > 100 µM | SK-MEL-5 > 100 µM | OVCAR-5 > 100 µM | HCT-116 41.3 µM | A549 > 100 µM | IGROV-1 > 100 µM
